Assay results as given in ChEMBL document CHEMBL1201862, “PubChem BioAssay data set” (2004).
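Following 48 hours of exposure in 96-well plates, responses at five concentrations were used to interpolate endpoints linearly. GI50 = concentration required for 50% inhibition of growth.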 Calls of active or inactive are those of the source. Rule as the data show it: active = GI50 up to about 1.1 µM and inactive = higher.

Key:
Assay in all cases: growth of human tumour cells (NCI), 48 h
RXF 393 = test system: RXF 393
BT-549 = test system: BT-549
T47D = test system: T47D
Hs-578T = test system: Hs-578T
K562 = test system: K562
HL-60 = test system: HL-60
OVCAR-5 = test system: OVCAR-5
HOP-62 = test system: HOP-62
MCF7 = test system: MCF7
NCI-H460 = test system: NCI-H460
CCRF-CEM = test system: CCRF-CEM
COLO 205 = test system: COLO 205
UO-31 = test system: UO-31
HT-29 = test system: HT-29
A549 = test system: A549
RPMI-8226 = test system: RPMI-8226
NCI-H522 = test system: NCI-H522
SK-MEL-2 = test system: SK-MEL-2
SN12C = test system: SN12C
SNB-19 = test system: SNB-19

Measured: GI50

CCO/C=N/C1=C(C#N)C(c2ccc(Cl)cc2)c2c(-c3ccccc3)nn(-c3ccccc3)c2O1 (stereo not given)
inactive: RXF 393 7.03 µM | BT-549 14.1 µM | T47D > 61.9 µM | Hs-578T 6.12 µM | K562 7.78 µM | HL-60 5.66 µM | OVCAR-5 23.7 µM | HOP-62 19.1 µM | MCF7 3.81 µM | NCI-H460 7.69 µM | CCRF-CEM 5.73 µM | COLO 205 5.27 µM | UO-31 11.6 µM | HT-29 7.53 µM | A549 5.73 µM | RPMI-8226 6.53 µM | NCI-H522 3.77 µM | SK-MEL-2 11.7 µM | SN12C 12.2 µM | SNB-19 12.7 µM

CCCCCC(=O)OC[n+]1ccc(-c2c(COC(=O)NC(C)C)c(COC(=O)NC(C)C)c3n2CCC3)cc1
inactive: RXF 393 > 100 µM | BT-549 > 100 µM | T47D > 100 µM | Hs-578T > 100 µM | K562 > 100 µM | HL-60 37.3 µM | OVCAR-5 > 100 µM | HOP-62 > 100 µM | MCF7 77.1 µM | NCI-H460 72.3 µM | CCRF-CEM 43.2 µM | COLO 205 > 100 µM | UO-31 > 100 µM | HT-29 > 100 µM | A549 > 100 µM | RPMI-8226 > 100 µM | NCI-H522 > 100 µM | SK-MEL-2 > 100 µM | SN12C > 100 µM | SNB-19 > 100 µM

CC(C)(C)[C@H]1CCC2(OCCO2)[C@](O)(CCCO)C1
inactive: RXF 393 > 100 µM | BT-549 > 100 µM | T47D > 100 µM | Hs-578T > 100 µM | K562 > 100 µM | HL-60 > 100 µM | OVCAR-5 > 100 µM | HOP-62 > 100 µM | MCF7 > 100 µM | NCI-H460 > 100 µM | CCRF-CEM > 100 µM | COLO 205 > 100 µM | UO-31 > 100 µM | HT-29 > 100 µM | A549 > 100 µM | RPMI-8226 > 100 µM | NCI-H522 > 100 µM | SK-MEL-2 > 100 µM | SN12C > 100 µM | SNB-19 > 100 µM

CSC(=S)N/N=C/c1ccccc1
inactive: RXF 393 28.8 µM | BT-549 46.3 µM | T47D 16.3 µM | Hs-578T > 100 µM | K562 42.5 µM | HL-60 36 µM | OVCAR-5 > 100 µM | HOP-62 40.7 µM | MCF7 33.6 µM | NCI-H460 43.7 µM | CCRF-CEM 26 µM | COLO 205 31.5 µM | UO-31 34.7 µM | HT-29 33 µM | A549 43.2 µM | RPMI-8226 36.4 µM | NCI-H522 52.6 µM | SK-MEL-2 > 100 µM | SN12C 50.2 µM | SNB-19 53.7 µM

O=C1OC(=O)C2C1C(c1ccccc1[N+](=O)[O-])C=C(c1ccco1)N2c1ccncc1 (stereo not given)
inactive: RXF 393 4.67 µM | BT-549 11.6 µM | T47D 4.97 µM | Hs-578T > 25.9 µM | K562 1.35 µM | HL-60 1.77 µM | OVCAR-5 18.2 µM | HOP-62 15.3 µM | MCF7 2.1 µM | NCI-H460 12.1 µM | CCRF-CEM 2.29 µM | COLO 205 7.98 µM | UO-31 6.01 µM | HT-29 2.57 µM | A549 13.6 µM | RPMI-8226 1.87 µM | NCI-H522 2.28 µM | SK-MEL-2 13.9 µM | SN12C 8.95 µM | SNB-19 8.39 µM

CCOC(=O)C12CC(C)=C(C)CC1CCCc1ccccc12 (stereo not given)
inactive: RXF 393 18.7 µM | BT-549 43.3 µM | T47D 15 µM | Hs-578T 36.1 µM | K562 21.2 µM | HL-60 11.2 µM | OVCAR-5 21.4 µM | HOP-62 38.3 µM | MCF7 17 µM | NCI-H460 16.4 µM | CCRF-CEM 18.4 µM | COLO 205 16.6 µM | UO-31 47 µM | HT-29 16.9 µM | A549 32.7 µM | RPMI-8226 12.5 µM | NCI-H522 17.6 µM | SK-MEL-2 15.5 µM | SN12C 23.4 µM | SNB-19 29.6 µM

CN1N(c2ccccc2)C(=O)C2=NC=C(C(=O)c3ccccc3)C(=N)C21C (stereo not given)
inactive: RXF 393 > 100 µM | BT-549 > 100 µM | T47D > 100 µM | Hs-578T > 100 µM | K562 > 100 µM | HL-60 > 100 µM | OVCAR-5 > 100 µM | HOP-62 > 100 µM | MCF7 > 100 µM | NCI-H460 > 100 µM | CCRF-CEM > 100 µM | COLO 205 > 100 µM | UO-31 > 100 µM | HT-29 > 100 µM | A549 > 100 µM | RPMI-8226 > 100 µM | NCI-H522 > 100 µM | SK-MEL-2 > 100 µM | SN12C > 100 µM | SNB-19 > 100 µM

c1ccc2c(c1)CCN2CCc1c[nH]c2ccccc12
inactive: RXF 393 > 10 µM | BT-549 > 10 µM | T47D > 10 µM | Hs-578T > 10 µM | K562 > 10 µM | HL-60 > 10 µM | OVCAR-5 > 10 µM | HOP-62 > 10 µM | MCF7 > 10 µM | NCI-H460 > 10 µM | CCRF-CEM > 10 µM | COLO 205 > 10 µM | UO-31 > 10 µM | HT-29 > 10 µM | A549 > 10 µM | RPMI-8226 > 10 µM | NCI-H522 > 10 µM | SK-MEL-2 > 10 µM | SN12C > 10 µM | SNB-19 > 10 µM

COc1cc2c(cc1OC)-c1cc3ccc(OC)c(OC)c3c[n+]1CC2 [PALMATINE CHLORIDE]
inactive: RXF 393 > 100 µM | BT-549 > 100 µM | T47D 83.4 µM | Hs-578T > 100 µM | K562 52.4 µM | HL-60 > 100 µM | OVCAR-5 > 100 µM | HOP-62 > 100 µM | MCF7 > 100 µM | NCI-H460 > 100 µM | CCRF-CEM > 100 µM | COLO 205 24.4 µM | UO-31 > 100 µM | HT-29 > 100 µM | A549 > 100 µM | RPMI-8226 > 100 µM | NCI-H522 > 100 µM | SK-MEL-2 97.1 µM | SN12C > 100 µM | SNB-19 15.5 µM
